According to EP0328089A2, “Reduced size LHRH analogs” (ABBOTT LABORATORIES, priority 1988, dated 1989):
Where a SMILES comes first, the peptide text is derived from it. [ ]: non-standard residue; d: D form. The star is where a group is joined. Propanoyl(3-(1-naphthyl)) = O=C(CCc1cccc2ccccc12)*; Propanoyl(3-indol-3-yl) = O=C(CCc1c[nH]c2ccccc12)*; d2Nal = N[C@H](Cc1ccc2ccccc2c1)C(=O)O

Test system: plasma LH levels
Experiment: Plasma LH level during and after i.v. infusion (Figures 1 and 2)
Format: in vivo
Conditions: mature castrate male rats, plot only, compound characterised in words
From the text: Figures 1 and 2 illustrate the effect on plasma LH levels in mature castrate male rats during and after i.v. infusion of compounds 20 and 24, respectively.

| SMILES | effect on plasma LH levels |
| --- | --- |
| CCNC(=O)[C@@H]1CCCN1C(=O)[C@H](CCCNC(=N)N)NC(=O)[C@H](CC(C)C)NC(=O)[C@@H](Cc1ccc2ccccc2c1)NC(=O)[C@H](Cc1ccc(O)cc1)NC(=O)[C@H](CO)NC(=O)CCc1cccc2ccccc12 [compound 20] ({Propanoyl(3-(1-naphthyl))}-SY[d2Nal]LRP-NHEt) | LHRH antagonist |
| CCNC(=O)[C@@H]1CCCN1C(=O)[C@H](CCCNC(=N)N)NC(=O)[C@H](CC(C)C)NC(=O)[C@@H](Cc1c[nH]c2ccccc12)NC(=O)[C@H](Cc1ccc(O)cc1)NC(=O)[C@H](CO)NC(=O)CCc1c[nH]c2ccccc12 [compound 24, (4-9)[N-(3-(3-Indole)propionyl)-Ser⁴-D-Trp⁶-Pro⁹-NHEt] LHRH] ({Propanoyl(3-indol-3-yl)}-SY[dW]LRP-NHEt) | LHRH agonist |
